These results are taken from patent publication US20210298306A1, “PESTICIDALLY ACTIVE AZOLE-AMIDE COMPOUNDS” (SYNGENTA PARTICIPATIONS AG, priority 2018, published 2021).

As to `CC(NC(=O)c1cncc(OC(F)F)c1)c1ncnn1-c1ccccn1` (stereo not shown) [P23, 5-(difluoromethoxy)-N-[1-[2-(2-pyridyl)-1,2,4-triazol-3-yl]ethyl]pyridine-3-carboxamide], the melting point (in general, the temperature of the solid-liquid transition) lay within 105 to 110 °C.
